Results as given in PMC11476959, “Structural Insights and Catalytic Mechanism of 3-Hydroxybutyryl-CoA Dehydrogenase from Faecalibacterium Prausnitzii A2-165” (International Journal of Molecular Sciences, 2024).

Columns and labels:
[1] = biological target: 3-hydroxybutyryl-CoA dehydrogenase of Faecalibacterium prausnitzii A2-165 (Faecalibacterium prausnitzii A2-165); experiment: SEC-MALS; 2.018 mg/mL A2HBD on Superdex 200 Increase, 20 mM Tris-HCl pH 8.0, 150 mM NaCl, 0.3 mL/min; main peak 92% of the scattered mass
[2] = biological target: T1, 3-hydroxybutyryl-CoA dehydrogenase of A2-165 (A2HBD; A2-165 BHBD) (Faecalibacterium duncaniae, UniProt C7H5K9); experiment: microscale thermophoresis; assay type: binding
T1 construct: gene FAEPRAA2165_01580; full-length (Met1-Leu290 printed, 867 bp gene), C-terminal 6xHis kept, pET21a, E. coli BL21(DE3); hexamer in solution; N-terminus MKIGVI and C-terminus TPVDQ-LE(H6) from the printed primers; Leu290 probably comes from the XhoI site
T1 sequence (C7H5K9 entry or part of it): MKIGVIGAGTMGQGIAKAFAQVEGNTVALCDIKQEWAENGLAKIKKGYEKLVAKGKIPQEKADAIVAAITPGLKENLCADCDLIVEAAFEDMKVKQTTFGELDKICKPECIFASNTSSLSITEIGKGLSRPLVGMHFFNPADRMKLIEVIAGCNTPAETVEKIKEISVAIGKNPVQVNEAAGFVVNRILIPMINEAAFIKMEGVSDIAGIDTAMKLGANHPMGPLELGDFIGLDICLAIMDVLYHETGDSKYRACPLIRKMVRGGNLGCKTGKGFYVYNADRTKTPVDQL

stoichiometry N [1]	Kd [2]	Compound
6	–	3-hydroxybutyryl-CoA dehydrogenase of Faecalibacterium prausnitzii A2-165 (enzyme)
–	23.9 µM	CC(=O)CC(=O)SCCNC(=O)CCNC(=O)[C@H](O)C(C)(C)COP(=O)(O)OP(=O)(O)OC[C@H]1O[C@@H](n2cnc3c(N)ncnc32)[C@H](O)[C@@H]1OP(=O)(O)O [acetoacetyl-CoA]
–	347 µM	NC(=O)c1ccc[n+]([C@@H]2O[C@H](COP(=O)(O)OP(=O)(O)OC[C@H]3O[C@@H](n4cnc5c(N)ncnc54)[C@H](O)[C@@H]3O)[C@@H](O)[C@H]2O)c1 [NAD^+]
